Source: patent publication US20240174637A1, “DEGRADERS OF GRK2 AND USES THEREOF” (Sonata Therapeutics, Inc., priority 2021, published 2024)
Like-named read-outs stand apart in the source and are kept apart here.

Tests used:
Assay type in all cases: cell-based
PAXF1657 EV = test: 7-day cellular proliferation assay (CellTiter-Glo), PAXF1657 EV; settings: proliferation, read-out: GeoMean IC50 (UM) PAXF1657 EV
Procedure: (§1) In order to identify compounds specific for GRK2, we generated two isogenic cell line pairs of the pancreatic cancer cell line PAXF1657, a pair of cells stably overexpressing GRK2 cDNA or the control empty vector and a cell line pair of PAXF1657 GRK2 knockout clonal cells versus non-targeting control clonal cells.
(§2) Proliferation Assay: Cellular anti-proliferative activity of compounds was assessed by using the pancreatic cancer cell line, PAXF1657, stably overexpressing GRK2 cDNA or the control empty vector, as well as the parental urinary bladder cancer cell line, 5637. In addition, we also took advantage of GRK2 knockout cell lines that were generated via CRISPR. Cell lines were seeded into tissue culture treated, white-walled, 96-well plates at a density of 500 cells/well in RPMI1640 media supplemented with 10% H.I. FBS and penicillin/streptomycin. Plates were incubated overnight at 37° C., 5% CO2 to allow cells to adhere to the wells. GRK2 inhibitors were added to the cells using a 10-point dilution series with a final concentration ranging from 30 μM-0.0002 μM in 0.3% DMSO. At the time of compound addition, a set of plates, that were not treated with compounds, were collected and cell viability was measured using CellTiter-Glo (Promega). CellTiter-Glo reagent was added to the designed plates and luminescence was measuring using a Biotek Synergy plate reader. The compound treated cells were incubated for 3 days at 37° C., 5% CO2. The media was then aspirated from each well and replaced with fresh media containing GRK2 inhibitors. The compound treated cells were then incubated for an additional 4 days at 37° C., 5% CO2. Cell viability was assessed and at end of the 7-day compound treatment by CellTiterGlo.

PAXF1657 KO Clone #4 = test: 7-day cellular proliferation assay (CellTiter-Glo), PAXF1657 KO Clone #4; settings: proliferation, read-out: GeoMean IC50 (uM) PAXF1657 KO Clone #4
Procedure: as §1, §2

GRK2 = molecular target: T1, GRK2 (Homo sapiens, UniProt P25098); test: GRK2 Degradation Assay and Western Blot in PAXF1657 cells; design: endogenous in cells; host or cells: PAXF1657; settings: for inhibition at 0.3 µM / inhibition at 1 µM / inhibition at 3 µM: read-out: Degradation Assay - 3 point: Degradation (%)
T1 sequence (P25098 1-689): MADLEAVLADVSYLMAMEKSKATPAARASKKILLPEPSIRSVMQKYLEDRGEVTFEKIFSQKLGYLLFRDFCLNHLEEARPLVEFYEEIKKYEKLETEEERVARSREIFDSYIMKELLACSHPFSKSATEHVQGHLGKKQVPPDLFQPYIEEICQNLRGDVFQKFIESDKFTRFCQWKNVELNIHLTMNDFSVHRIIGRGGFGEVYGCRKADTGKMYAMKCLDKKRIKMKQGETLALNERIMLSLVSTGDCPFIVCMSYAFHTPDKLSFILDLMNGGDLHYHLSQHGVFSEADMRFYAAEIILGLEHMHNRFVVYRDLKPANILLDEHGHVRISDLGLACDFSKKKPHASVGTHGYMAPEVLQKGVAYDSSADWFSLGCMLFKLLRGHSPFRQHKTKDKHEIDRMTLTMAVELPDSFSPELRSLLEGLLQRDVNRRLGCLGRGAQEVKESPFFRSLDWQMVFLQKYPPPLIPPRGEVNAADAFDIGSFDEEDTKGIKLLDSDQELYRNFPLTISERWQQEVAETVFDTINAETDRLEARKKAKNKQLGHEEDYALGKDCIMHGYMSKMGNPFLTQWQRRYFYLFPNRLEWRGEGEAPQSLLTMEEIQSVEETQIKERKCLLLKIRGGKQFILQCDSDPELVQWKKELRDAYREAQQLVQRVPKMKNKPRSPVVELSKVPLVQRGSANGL
Procedure: General Protocol: Degradation Assay and Western Blot. PAXF1657 cells were plated in 6-well, 24-well plates or 60 mm tissue culture treated dishes and incubated at 37° C. until 70% confluency. The media was aspirated, and the cells were treated with fresh media containing the compounds in the concentration range of 0 μM to 10 μM for a period of 6 to 24 hours. At the desired time points the cells were washed twice with cold PBS and lysed with lysis buffer (ice cold PBS+1% NP40 with 1/100 protease/phosphatase inhibitors) on ice for 8 mins followed by sonication at 70% intensity pulses for 10 seconds. The cells were centrifuged at 20000 g for 8 min at 4° C. The supernatants were collected and stored at −80° C.
Samples were mixed with NuPAGE LDS sample buffer and NuPAGE sample reducing buffer (3×), vortexed and heated at 95° C. for 10 min, and then analyzed by SDS-PAGE (NuPAGE 4-12%) followed by transfer to nitrocellulose membrane. […] The membranes were washed three times with TBST and incubated with GRK2 or R-actin antibodies in 5% milk in TBST at 4° C. overnight. The membranes were washed three times with TBST and incubated with anti-mouse IgG-HRP or anti-rabbit IgG-HRP at room temperature for 2 hours in 5% milk in TBST. The membranes were washed three times with TBST and developed with ECL Dura, ECL femto or ECL atto substrates.

Structure (SMILES)	inhibition at 0.3 µM (GRK2; Conc 0.3 uM) [%]	inhibition at 1 µM (GRK2; Conc 1 uM) [%]	inhibition at 3 µM (GRK2; Conc 3 uM) [%]	DC50 (GRK2; PAXF1657, 24 h, read-out: Degradation Assay - Full Dose Response: IC50 (uM) [cell line: PAXF1657, time point: 24 h]) [µM]	IC50 (PAXF1657 EV) [µM]	IC50 (PAXF1657 KO Clone #4) [µM]	inhibition at 0.3 µM (GRK2) [%]	inhibition at 1 µM (GRK2) [%]	inhibition at 3 µM (GRK2) [%]
C[C@@H](NC(=O)c1cccc(NCc2nnc(-c3ccncn3)n2C)c1)c1cccc(OCCCCCn2cc(CCCC(=O)Nc3cccc4c3CN(C3CCC(=O)NC3=O)C4=O)nn2)c1 (stereo partly drawn) [Compound D157]	13.5	11.1	42.3	–	7.39	> 30	–	–	–
C[C@@H](NC(=O)c1cccc(NCc2nnc(-c3ccncn3)n2C)c1)c1cccc(OCCCCCCCn2cc(CCCC(=O)Nc3cccc4c3CN(C3CCC(=O)NC3=O)C4=O)nn2)c1 (stereo partly drawn) [Compound D158, N-((1R)-1-(3-(7-(4-(4-(2-(2,6-dioxopiperidin-3-yl)-1-oxoisoindolin-4-ylamino)-4-oxobutyl)-1H-1,2,3-triazol-1-yl)heptyloxy)phenyl)ethyl)-3-((4-methyl-5-(pyrimidin-4-yl)-4H-1,2,4-triazol-3-yl)methylamino)benzamide]	42.9	65.8	81.9	–	1.71	> 30	–	–	–
C[C@@H](NC(=O)c1cccc(NCc2nnc(-c3ccncn3)n2C)c1)c1cccc(OCCCCCCn2cc(CCC(=O)Nc3cccc4c3CN(C3CCC(=O)NC3=O)C4=O)nn2)c1 (stereo partly drawn) [Compound D159]	10	46.3	64.5	–	18.2	> 30	–	–	–
Cc1ncsc1-c1ccc(CNC(=O)[C@@H]2C[C@@H](O)CN2C(=O)[C@@H](NC(=O)COCCCOCCCCCOc2ccc3c(c2)[C@H](NC(=O)c2cccc(NCc4nnc(-c5ccncn5)n4C)c2)CCO3)C(C)(C)C)cc1 [Compound D161]	15	23	30	–	1.56	7.51	–	–	–
C[C@@H](NC(=O)c1cccc(NCc2nnc(-c3ccncn3)n2C)c1)c1cccc(OCCCCCn2cc(CCCCC(=O)Nc3cccc4c3CN(C3CCC(=O)NC3=O)C4=O)nn2)c1 (stereo partly drawn) [Compound D164]	17.1	14.1	42.6	–	5.09	> 30	–	–	–
Cn1c(CNc2cccc(C(=O)N[C@@H]3CCOc4ccc(OCCCCCCOCCOCCOCCCCCC(=O)N5CCN(c6ccc7c(c6)CN(C6CCC(=O)NC6=O)C7=O)CC5)cc43)c2)nnc1-c1ccncn1 (stereo partly drawn) [Compound D188, N-((4R)-6-(6-(2-(2-(6-(4-(2-(2,6-dioxopiperidin-3-yl)-1-oxoisoindolin-5-yl)piperazin-1-yl)-6-oxohexyloxy)ethoxy)ethoxy)hexyloxy)chroman-4-yl)-3-((4-methyl-5-(pyrimidin-4-yl)-4H-1,2,4-triazol-3-yl)methylamino)benzamide]	–	–	–	–	1.26	> 30	56.9	67.7	78.2

Further lines, with some results ahead:

inhibition at 0.3 µM (GRK2; Conc 0.3 uM) [%]	inhibition at 1 µM (GRK2; Conc 1 uM) [%]	inhibition at 3 µM (GRK2; Conc 3 uM) [%]	DC50 (GRK2; PAXF1657, 24 h, read-out: Degradation Assay - Full Dose Response: IC50 (uM) [cell line: PAXF1657, time point: 24 h]) [µM]	Structure (SMILES)	IC50 (PAXF1657 EV) [µM]	IC50 (PAXF1657 KO Clone #4) [µM]	inhibition at 0.3 µM (GRK2) [%]	inhibition at 1 µM (GRK2) [%]	inhibition at 3 µM (GRK2) [%]
-1.61	35.5	70.1	–	C[C@@H](NC(=O)c1cccc(NCc2nnc(-c3ccncn3)n2C)c1)c1cccc(OCCCCCCn2cc(CCCC(=O)Nc3cccc4c3CN(C3CCC(=O)NC3=O)C4=O)nn2)c1 (stereo partly drawn) [Compound D165]	2.6	> 30	–	–	–
12.1	32.4	68.1	–	C[C@@H](NC(=O)c1cccc(NCc2nnc(-c3ccncn3)n2C)c1)c1cccc(OCCCCCCn2cc(CCCCC(=O)Nc3cccc4c3CN(C3CCC(=O)NC3=O)C4=O)nn2)c1 (stereo partly drawn) [Compound D166]	1.91	> 30	–	–	–
33.3	57.4	55.2	–	Cn1c(CNc2cccc(C(=O)NCc3ccc(OCCCCCOCCCOCC(=O)Nc4cccc5c4CN(C4CCC(=O)NC4=O)C5=O)cc3)c2)nnc1-c1ccncn1 (stereo not drawn) [Compound D167, N-(4-(5-(3-(2-(2-(2,6-dioxopiperidin-3-yl)-1-oxoisoindolin-4-ylamino)-2-oxoethoxy)propoxy)pentyloxy)benzyl)-3-((4-methyl-5-(pyrimidin-4-yl)-4H-1,2,4-triazol-3-yl)methylamino)benzamide]	2.44	> 30	–	–	–
0.276	-12	-22	–	Cc1ncsc1-c1ccc(CNC(=O)[C@@H]2C[C@@H](O)CN2C(=O)[C@@H](NC(=O)COCCCOCCCCCOc2ccc(CNC(=O)c3cccc(NCc4nnc(-c5ccncn5)n4C)c3)cc2)C(C)(C)C)cc1 [Compound D168]	> 1.88	6.03	–	–	–
29.1	29.5	21.3	0.38	Cc1ncsc1-c1ccc(CNC(=O)[C@@H]2C[C@@H](O)CN2C(=O)[C@@H](NC(=O)COCCCOCCCCCOc2cccc([C@@H](C)NC(=O)c3cccc(NCc4nnc(-c5ccncn5)n4C)c3)c2)C(C)(C)C)cc1 [Compound D182, (2S,4R)-1-((S)-3,3-dimethyl-2-(2-(3-((5-(3-((R)-1-(3-(((4-methyl-5-(pyrimidin-4-yl)-4H-1,2,4-triazol-3-yl)methyl)amino)benzamido)ethyl)phenoxy)pentyl)oxy)propoxy)acetamido)butanoyl)-4-hydroxy-N-(4-(4-methylthiazol-5-yl)benzyl)pyrrolidine-2-carboxamide]	0.12	10	–	–	–
20	36.3	-32.6	–	Cc1ncsc1-c1ccc(CNC(=O)[C@@H]2C[C@@H](O)CN2C(=O)C(NC(=O)CCCCCOCCOCCOCCCCCCOc2ccc3c(c2)[C@H](NC(=O)c2cccc(NCc4nnc(-c5ccncn5)n4C)c2)CCO3)C(C)(C)C)cc1 (stereo partly drawn) [Compound D186, (2S,4R)-1-((R)-2-tert-butyl-22-((R)-4-(3-((4-methyl-5-(pyrimidin-4-yl)-4H-1,2,4-triazol-3-yl)methylamino)benzamido)chroman-6-yloxy)-4-oxo-10,13,16-trioxa-3-azadocosane)-4-hydroxy-N-(4-(4-methylthiazol-5-yl)benzyl)pyrrolidine-2-carboxamide]	0.56	5.09	–	–	–
11.8	23.8	63.1	–	Cn1c(CNc2cccc(C(=O)N[C@@H]3CCOc4ccc(OCCCCCCOCCOCCOCCCCCC(=O)Nc5cccc6c5CN(C5CCC(=O)NC5=O)C6=O)cc43)c2)nnc1-c1ccncn1 (stereo partly drawn) [Compound D187, N-((4R)-6-(6-(2-(2-(6-(2-(2,6-dioxopiperidin-3-yl)-1-oxoisoindolin-4-ylamino)-6-oxohexyloxy)ethoxy)ethoxy)hexyloxy)chroman-4-yl)-3-((4-methyl-5-(pyrimidin-4-yl)-4H-1,2,4-triazol-3-yl)methylamino)benzamide]	2.09	> 30	–	–	–
